From PubChem BioAssay (NCI)
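Tested at 5 concentrations; 48 h exposure; 96-well plates; endpoints linearly interpolated, else capped at highest concentration. Abbreviation: GI50, concentration required for 50% inhibition of growth. TGI: concentration producing complete growth inhibition.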

Legend:
Assay in all cases: DTP human tumour cell line panel, 48 h
HCT-116 colon = system: HCT-116 colon
TK-10 renal = system: TK-10 renal
NCI-H522 lung = system: NCI-H522 lung
SK-MEL-28 melanoma = system: SK-MEL-28 melanoma
IGROV1 ovarian = system: IGROV1 ovarian
HS 578T breast = system: HS 578T breast
SF-268 CNS = system: SF-268 CNS
CAKI-1 renal = system: CAKI-1 renal
U251 CNS = system: U251 CNS
A498 renal = system: A498 renal

| Compound | GI50 (HCT-116 colon) [µM] | TGI (HCT-116 colon) [µM] | GI50 (TK-10 renal) [µM] | TGI (TK-10 renal) [µM] | GI50 (NCI-H522 lung) [µM] | TGI (NCI-H522 lung) [µM] | GI50 (SK-MEL-28 melanoma) [µM] | TGI (SK-MEL-28 melanoma) [µM] | GI50 (IGROV1 ovarian) [µM] | TGI (IGROV1 ovarian) [µM] | GI50 (HS 578T breast) [µM] | TGI (HS 578T breast) [µM] | GI50 (SF-268 CNS) [µM] | TGI (SF-268 CNS) [µM] | GI50 (CAKI-1 renal) [µM] | TGI (CAKI-1 renal) [µM] | GI50 (U251 CNS) [µM] | TGI (U251 CNS) [µM] | GI50 (A498 renal) [µM] | TGI (A498 renal) [µM] |
| --- | --- | --- | --- | --- | --- | --- | --- | --- | --- | --- | --- | --- | --- | --- | --- | --- | --- | --- | --- | --- |
| O=C(Nc1cccc(-c2nc3ccccc3[nH]2)c1)c1cccc(NC(=O)c2ccco2)c1 | 1.74 | 3.11 | 2.88 | 6.66 | 2.5 | 6.41 | 1.75 | 3.31 | 5.34 | 17 | 2.2 | 5.97 | 1.99 | 3.78 | 2.53 | 7.21 | 1.73 | 3.23 | 4.33 | 18.3 |
| C[C@@H](Oc1cc(-c2cnn(C3CC4(CCNCC4)C3)c2)cnc1N)c1c(F)ccc(Cl)c1Cl | 0.671 | 2.65 | 1.85 | 4.7 | 1.48 | 3.12 | 1.55 | 3.2 | 2.23 | 7.91 | 1.37 | 4.15 | 1.64 | 4.71 | 2.41 | 7.2 | 1.6 | 3.92 | 0.488 | 2.35 |
| C=C1C(=O)O[C@H]2[C@H]1CC/C(Cn1cc(Cn3ccc4cc(Cl)ccc43)nn1)=C\CC[C@@]1(C)O[C@@H]21 | 1.5 | 3.12 | 1.67 | 3.11 | 1.26 | 2.87 | 1.73 | 3.27 | 1.42 | 2.9 | 2.5 | 6.68 | 1.65 | 3.13 | 1.24 | 2.5 | 1.69 | 3.35 | 3.39 | 11.7 |
| COc1ccc2c(c1)C(=O)c1c-2c(N2CCN(C(=O)CN(C)C)CC2)nc2ccccc12 | 11.6 | 26.3 | 14.1 | 37.6 | 13.7 | 30.6 | 1.29 | 3.16 | 10 | 26.4 | 11.6 | 31.9 | 17.3 | 44.3 | 47.9 | > 100 | 14.9 | 30.6 | 15.4 | 31.8 |
| COc1cc2c3c(n(CCCn4ccnc4)c(=O)c2cc1OC)-c1ccccc1C3=O | < 0.0135 | 0.153 | 0.923 | 27.5 | < 0.01 | 0.0612 | 1.59 | > 100 | < 0.01 | 0.35 | 11.6 | > 100 | < 0.0423 | > 100 | < 0.01 | 0.105 | < 0.0122 | 0.57 | 0.0449 | 0.292 |
| O=[N+]([O-])c1ccccc1/C=C/C=C1c2ccccc2-c2ccccc21 | > 100 | > 100 | > 100 | > 100 | > 100 | > 100 | > 100 | > 100 | > 100 | > 100 | > 100 | > 100 | > 100 | > 100 | > 100 | > 100 | > 100 | > 100 | > 100 | > 100 |
| Nc1nc(F)nc2c1ncn2C1OC(COP(=O)(O)O)C(O)C1O (stereo not drawn) | – | 325 | – | 773 | – | 740 | – | 755 | – | 952 | – | 379 | – | 874 | – | > 68.4 | – | > 1250 | – | 694 |
| CC1=C([Se]CC(OC(=O)[C@@H](CSSC(C)(C)C)NC(=O)C(C)(C)C)C(=O)NCCCCCC(=O)OCc2ccccc2)C(=O)c2ccccc2C1=O (stereo partly drawn) | 1.53 | 3.68 | 2.42 | 4.43 | 1.69 | 3.21 | 1.92 | 3.53 | 1.9 | 3.66 | 2.18 | 5.56 | 1.91 | 3.51 | 2.18 | 4.52 | 1.25 | 2.81 | 1.63 | 4.77 |
| CC(=O)NC(Cc1c[nH]c2ccccc12)C(=O)O (stereo not drawn) | – | > 100 | – | > 100 | – | > 100 | – | > 100 | – | > 100 | – | > 100 | – | > 100 | – | > 100 | – | > 100 | – | > 100 |
| COc1ccc(/C(Cl)=C(\C=O)c2cc(OC)c(OC)c(OC)c2)cc1OC | – | > 100 | – | > 100 | – | 48.8 | – | > 100 | – | > 100 | – | > 100 | – | > 100 | – | > 100 | – | > 61.2 | – | > 90.3 |
| O=C1C=CC(=O)N1c1ccc2c(c1)Cc1cc(NC(=O)C(F)(F)F)ccc1-2 | – | 22.6 | – | 7.75 | – | 11.3 | – | 34.4 | – | 32.3 | – | 51.9 | – | 39.7 | – | 32.7 | – | 34 | – | 48.4 |
| COc1cc(C(=O)O)ccc1NC(=O)[C@@H]1N[C@@H](CC(C)(C)C)[C@](C#N)(c2ccc(Cl)cc2F)[C@H]1c1cccc(Cl)c1F | – | – | 5.28 | 21.2 | 2.72 | 10.8 | 2.56 | 7.59 | 2.21 | 17.3 | 3.9 | 15.8 | 4.62 | 30.5 | 0.1 | 7.01 | 3.16 | 11 | 0.132 | 2.79 |
| N#Cc1c(SCc2ccccc2)nc2[nH]c(=S)[nH]c(=S)c2c1-c1ccco1 | 21.6 | > 100 | 15.2 | 72.1 | > 100 | > 100 | > 100 | > 100 | > 100 | > 100 | 70.6 | > 100 | 32.4 | > 100 | 42.9 | > 100 | > 100 | > 100 | 55.3 | > 100 |
